Entries after “also recorded” stand apart in the source; their conditions may differ.
What was measured:
[1] = test system: CC(=O)N[C@H]1[C@@H](OP(=O)(O)OP(=O)(O)OC[C@H]2O[C@@H](n3ccc(=O)[nH]c3=O)[C@H](O)[C@@H]2O)O[C@H](CO)[C@@H](O)[C@@H]1O[C@H](C)C(=O)N[C@@H](C)C(=O)N[C@H](CCC(=O)N[C@@H](CCCCNC(=O)CCCCCNc1ccc([N+](=O)[O-])c2nonc12)C(=O)N[C@H](C)C(=O)N[C@H](C)C(=O)O)C(=O)O; test: Fluorescent enhancement assay, mutant MraY; format: biochemical, Bacillus subtilis; details: pH 8.0; 37.0 °C
Procedure: Site–directed mutagenesis of MraY. Site-directed mutagenesis of the B. subtilis MBP-tagged MraY enzyme was performed directly on the pMAL -BS-MraY-16 expression plasmid by using the “Quickchanged XL Site-Directed Mutagenesis Kit ’’ from stratagene and the oligonucleotides shown below. Mutations introduced in the mraY gene sequence were checked by DNA sequencing. […]
MraY-T51A-R 5’-[…]-3’
T53A MraY-T53A-F 5’-[…]-3’
MraY-T53A-R 5’-[…]-3’
K102A MraY-K102A-F 5’-[…]-3’
MraY-K102A-R 5’-[…]-3’
K226A Mray-K226A-F 5’-[…]-3’ […]
F228A MraY-F228A-F 5’-[…]-3’
MraY-F228A-R 5’-[…]-3’
Q271A Mray-Q271A-F 5’-[…]-3’
Mray-Q271A-R 5’-[…]-3’
R281A MraY-R281A-F 5’-[…]-3’
MraY-R281A-R 5’-[…]-3’
W297A MraY-W297A-F 5’-[…]-3’
MraY-W297A-R 5’-[…]-3’
(§1) Determine kinetic parameters by MraY fluorescence enhancement assay. The fluorescence enhancement assay was performed in 384-well plate as described by Bugg et al. with slight modifications.5 The reaction mixture containing MraYBS (10 μg/mL), C55P (200 μM) in 30 μL reaction buffer (30 mM Tris, 10 mM MgCl2, 10 mM NaCl, 0.1 mM Tween-20, 2.5% DMSO, pH 8.0) were pre-incubated at 37 °C for 15 min. The reactions were initiated by the addition of various concentrations of NBD-Park’s nucleotide 6 (0 to 160 μM). For inhibition study, a various concentrations of inhibitors were added before the addition of substrate 6. The continuous fluorescence increase over 60 min was monitored with λex 466 nm/λem 535 nm by fluorescence microplate reader (SpectraMax M5, Molecular Devices, LLC) at 37 °C. Linear regressions of increased fluorescent units (FLU) versus time (min) were used to calculate the initial velocities for each reaction. The kinetic parameters values (Ki, KM, and Vmax) were obtained by nonlinear regression analysis using the […] equation with the GraphPad Prism program (GraphPad Software, San
(§2) (1 picture or pasted object on this page, not shown here)

[2] = test system: S. aureus; test: Minimal inhibitory concentration, broth dilution; format: cell-based, S. aureus (BCRC 11863); details: Staphylococcus aureus, standard broth dilution
Procedure: (§3) Determination of Minimal Inhibition Concentration (MIC). B. subtilis (BCRC 10614) and S. aureus (BCRC 11863) was obtained from Bioresource Collection and Research Center (BCRC), Taiwan. The minimal inhibitory concentration of tested compounds was determined following the NCCLS standard. The experiments were conducted in 96-well microtiter plates using 16-point 2-fold dilutions in Muller-Hilton broth. Exponentially growing cells at 5 × 10^5 cells/mL were incubated with test compounds at various concentrations in a final volume of 100 μL. After an 18 to 24 h incubation at 37 °C, the minimal concentration of the compound that prevents at least 95% bacterial growth was determined as the MIC value of a given molecule.
as §2

[3] = test system: B. subtilis; test: Minimal inhibitory concentration, broth dilution; format: cell-based, B. subtilis (BCRC 10614); details: Bacillus subtilis, standard broth dilution
Procedure: as §3, §2

[4] = target: T1, MraYBS (Bacillus subtilis, UniProt Q03521); test: MraY fluorescence enhancement assay (kinetics, inhibition); format: biochemical; details: for Inhibition Mode: Lineweaver-Burk, 6 as substrate
T1 construct: MBP; made in house
T1 sequence (Q03521 1-324): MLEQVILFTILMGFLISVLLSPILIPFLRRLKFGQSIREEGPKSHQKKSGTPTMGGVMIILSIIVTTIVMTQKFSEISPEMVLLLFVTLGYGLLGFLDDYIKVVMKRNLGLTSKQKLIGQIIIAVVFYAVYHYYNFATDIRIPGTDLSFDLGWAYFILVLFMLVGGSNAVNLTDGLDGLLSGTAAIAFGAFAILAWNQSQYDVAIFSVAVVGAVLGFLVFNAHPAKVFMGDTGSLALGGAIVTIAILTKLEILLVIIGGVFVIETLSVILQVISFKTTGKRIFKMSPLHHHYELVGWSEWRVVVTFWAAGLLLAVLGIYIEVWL
Procedure: as §1

[5] = target: T1, MraYBS; test: Biolayer interferometry-based (BLI) binding assay
Procedure: MraYBS binding was measured in a biolayer interferometry-based binding assay on Octet Red96® instrument (ForteBio, Inc.). The biotinylation of MraYBS was performed with using EZ-Link® Sulfo-NHS-LC-LC-Biotin Kit (Thermo Fisher Scientific, Inc.). In general, MraYBS (1.7 mg/mL) in 50 μL reaction buffer (0.01 M HEPES pH 7.4, 0.15 M NaCl, 0.005% v/v Surfactant P20), was added by the sulfo-NHS-LC-LC-biotin reagent (1 mM, 1 μL). After incubating for 30 minutes at room temperature, the biotinylated-MraYBS was purified by a Zeba^TM Spin Desalting Columns, 7K MWCO (Thermo Fisher Scientific, Inc.), and the buffer was changed to the binding buffer (30 mM Tris, 10 mM MgCl2, 10 mM NaCl, 0.1 mM Tween-20, pH 8.0) during the purification. Comparing to the non-biotinylated-MraYBS, the biotinylated-MraYBS remains 62% activity measured by the HPLC-based MraY functional assay in 1 h reaction. The biotinylated MraYBS was then immobilized to Super Streptavidin (SSA) Octet tips (ForteBio, Inc.) for reaching a fixed signal of 3 nm. Before the assay starting, the MraYBS-labeled SSA sensors were pre-soaked in binding buffer for 30 min. The association of Park’s analogues with MraYBS were measured by incubating MraYBS-labeled SSA sensors in binding buffer containing various concentrations of samples in Octet Red system. The dissociation was monitored by moving the ligand biosenors from the analyte solution to binding buffer. The dissociation constants (KD) were obtained by nonlinear regression analysis using the specific binding model with the GraphPad Prism program (GraphPad Software, San Diego, CA).

[6] = target: T1, MraYBS; test: HPLC-based MraY functional assay (substrate activity); format: biochemical; details: Park's nucleotides 10 μM, MraYBS 40 μg/mL, C55P 1 mM, 37 °C, 24 h
Procedure: The purified MraY from Bacillus subtilis was prepared as described in our previous reports. […] […] The reaction mixtures were added by uridine (0.01 mg/mL) as the internal standard and heated to 100 °C to stop the transferring reaction. The samples were analyzed by RP-C18 HPLC with gradient elution of 0.25 M NH4HCO3(aq)/15% MeOH in water (100:0 to 0:100) at a flow rate of 1 mL/min over 45 min, and the peaks of substrates were monitored at UV 260 nm. For 6 and 11–17, the reaction mixture containing MraYBS (10 μg/mL), C55P (200 μM), 6-(7-Nitro-2,1,3-benzoxadiazol-4-ylamino)hexanoic acid (5 μM, internal standard) in 10 μL reaction buffer (30 mM Tris, 10 mM MgCl2, 10 mM NaCl, 0.1 mM Tween-20, 2.5% DMSO, pH 8.0) were pre-incubated at 37 °C for 15 min. […] The reaction mixtures were heated to 100 °C to stop the transferring reaction, and samples were analyzed by an anion-exchange column (SAX1, Supelco Co., 5 μm, 4.6 × 250 mm) with a linear gradient elution of NH4OAc (20 mM to 1 M in MeOH) at a flow rate of 1.0 mL/min over 30 min. The fluorescent substrates were monitored with λex 466 nm/λem 535 nm by fluorescence detector.

[7] = substrate: CC(=O)N[C@H]1[C@@H](OP(=O)(O)OP(=O)(O)OC[C@H]2O[C@@H](n3ccc(=O)[nH]c3=O)[C@H](O)[C@@H]2O)O[C@H](CO)[C@@H](O)[C@@H]1O[C@H](C)C(=O)N[C@@H](C)C(=O)N[C@H](CCC(=O)N[C@@H](CCCCNC(=O)CCCCCNc1ccc([N+](=O)[O-])c2nonc12)C(=O)N[C@H](C)C(=O)N[C@H](C)C(=O)O)C(=O)O; test: MraY fluorescence enhancement assay (kinetics, inhibition); format: biochemical, Bacillus subtilis; details: other: WT MraYBS, 6 as the substrate; pH 8.0; 37.0 °C
Procedure: as §1

MraYBS Q271A mutant (Bacillus subtilis subsp. subtilis str. 168; Q271A)
Km [1]: 72 ± 11 µM

MraYBS K102A mutant (Bacillus subtilis subsp. subtilis str. 168; K102A)
Km [1]: 49 ± 9 µM

MraYBS W297A mutant (Bacillus subtilis subsp. subtilis str. 168; W297A)
Km [1]: 63 ± 9 µM

MraYBS R281A mutant (Bacillus subtilis subsp. subtilis str. 168; R281A)
Km [1]: 20 ± 1 µM

MraYBS T53A mutant (Bacillus subtilis subsp. subtilis str. 168; T53A)
Km [1]: 70 ± 11 µM

MraYBS K226A mutant (Bacillus subtilis subsp. subtilis str. 168; K226A)
Km [1]: 24 ± 3 µM

CC(=O)N[C@H]1[C@@H](OP(=O)(O)OP(=O)(O)OC[C@H]2O[C@@H](n3cc(NC(=O)Cc4ccc(C)cc4)c(=O)[nH]c3=O)[C@H](O)[C@@H]2O)O[C@H](CO)[C@@H](O)[C@@H]1O[C@H](C)C(=O)N[C@@H](C)C(=O)O [Compound 20]
MIC [2]: > 200 µM | MIC [3]: > 200 µM | Ki [4]: 11 ± 3 µM | difference of inhibition abilities (Ki values) of 19 and 20 [4]: 70 fold | Inhibition Mode [4]: Competitive | Kd [5]: 197 ± 47 µM | binding affinity fold stronger than that of 19 ([5]; ratio of KD): approximately 1.5 fold

MraYBS F228A mutant (Bacillus subtilis subsp. subtilis str. 168; F228A)
Km [1]: 18 ± 2 µM

MraYBS T51A mutant (Bacillus subtilis subsp. subtilis str. 168; T51A)
Km [1]: 24 ± 2 µM

CC(=O)N[C@H]1[C@@H](OP(=O)(O)OP(=O)(O)OC[C@H]2O[C@@H](n3cc(NC(=O)Cc4ccc(C)cc4)c(=O)[nH]c3=O)[C@H](O)[C@@H]2O)O[C@H](CO)[C@@H](O)[C@@H]1O[C@H](C)C(=O)N[C@@H](C)C(=O)N[C@H](CCC(=O)N[C@@H](CCCCN)C(=O)N[C@H](C)C(=O)N[C@H](C)C(=O)O)C(=O)O [Compound 22]
MIC [2]: > 200 µM | MIC [3]: > 200 µM | substrate under extreme reaction conditions [6]: not be a substrate | Ki [4]: 4 ± 1 µM | potency relative to tunicamycins (Ki) [4]: approximately two-fold; also recorded: roughly twice | Inhibition Mode [4]: Competitive | Kd [5]: 86 ± 12 µM | binding affinity fold stronger than that of 20 ([5]; ratio of KD): approximately 2.3 fold

B1: MraYBS (Bacillus subtilis subsp. subtilis str. 168) (protein)
chain: MLEQVILFTILMGFLISVLLSPILIPFLRRLKFGQSIREEGPKSHQKKSGTPTMGGVMIILSIIVTTIVMTQKFSEISPEMVLLLFVTLGYGLLGFLDDYIKVVMKRNLGLTSKQKLIGQIIIAVVFYAVYHYYNFATDIRIPGTDLSFDLGWAYFILVLFMLVGGSNAVNLTDGLDGLLSGTAAIAFGAFAILAWNQSQYDVAIFSVAVVGAVLGFLVFNAHPAKVFMGDTGSLALGGAIVTIAILTKLEILLVIIGGVFVIETLSVILQVISFKTTGKRIFKMSPLHHHYELVGWSEWRVVVTFWAAGLLLAVLGIYIEVWL
notes: MBP; made in house
Km [7]: 18 ± 1 µM
